{"source": "patent US12398104B2", "about": "“Odorless thiols for permanent waving, straightening and depilatory applications” (The Procter & Gamble Company, priority 2017, dated 2025)", "experiment": "Mannequin head curl retention expert evaluation (air dried hair)", "conditions": "through 20 washes", "from_the_text": "Mannequin Head Odor and Curl Expert Evaluation\nControl perm: Omniperm™ with ammonium thioglycolate, available from Zotos Professional®, including both the reducing and oxidizing steps.\nCurl Retention Assessments:\nTreatment and expert sensory performed by licensed cosmetologist with 20+ years expertise in perms. All evaluations shown in graphs were done with hair in dry state, after air drying. Photos are available for most time points as well."}
{"smiles": "C[n+]1cccc(NCCS)c1.[I-]", "note": "[3-((2-mercaptoethyl)amino)-1-methylpyridin-1-ium iodide]", "values": [{"measurement": "Curl retention compared with benchmark control perm", "value": "equal curl retention"}]}
